# Patent publication US11618747B2, “LXR modulators with bicyclic core moiety” (OrsoBio, Inc., priority 2018, dated 2023)
# pEC50: −log10 of the molar value.
# Target: T1, LXRβ ligand-binding domain (Homo sapiens, UniProt P55055, DUP175-175)
# T1 construct: amino acids 156-461; NP009052; made in house; host or cells: E. coli
# T1 sequence (P55055 with tags, fused parts or gaps DUP175-175 limits assumed): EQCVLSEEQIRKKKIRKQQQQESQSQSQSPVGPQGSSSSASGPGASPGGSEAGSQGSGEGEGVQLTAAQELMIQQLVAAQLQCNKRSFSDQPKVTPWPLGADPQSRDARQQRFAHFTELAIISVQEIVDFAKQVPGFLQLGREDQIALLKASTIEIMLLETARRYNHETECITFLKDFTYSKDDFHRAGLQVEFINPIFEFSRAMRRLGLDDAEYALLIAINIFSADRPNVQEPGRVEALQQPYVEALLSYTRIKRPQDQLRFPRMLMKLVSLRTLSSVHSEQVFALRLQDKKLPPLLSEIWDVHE
# Test: TR-FRETβ activity assay (NCoA3 coactivator peptide recruitment)
# Type: biochemical
# Conditions: TR-FRET, 1 μM 24(S)-25-epoxycholesterol prestimulation; read-out: FRETβ (EC50 range)
# Protocol: (§1) The tested compounds were usually dissolved, tested and stored as 20 mM stock solutions in DMSO. Since sulfonyl acetic acid derivatives tend to decarboxylate under these conditions, these stock solutions were prepared, tested and stored as 20 mM DMSO stock solutions containing 100 mM trifluoroacetic Acid (5 equivalents). Sulfonyl acetic acid derivatives are shelf stable as solid at rt for long time as reported by Griesbrecht et al. (Synlett 2010:374) or Faucher et al. (J. Med. Chem. 2004; 47:18).
# Recombinant GST-LXRPβ ligand-binding domain (LBD; amino acids 156-461; NP009052; SEQ ID NO:4) was expressed in E. coli and purified via gluthatione-sepharose affinity chromatography. N-terminally biotinylated NCoA3 coactivator peptide (SEQ ID NO:7) was chemically synthesized (Eurogentec). Assays were done in 384 well format (final assay volume of 25 μL/well) in a Tris/HCl buffer (pH 6.8) containing KCl, bovine serum albumin, Triton-X-100 and 1 μM 24(S)-25-epoxycholesterol as LXR-prestimulating agonist. Assay buffer was provided and test articles (potential LXR inverse agonists) were titrated to yield final assay concentrations of 50 μM, 16.7 μM, 5.6 μM, 1.9 μM, 0.6 μM, 0.2 μM, 0.07 μM, 0.02 μM, 0.007 μM, 0.002 μM with one vehicle control. Finally, a detection mix was added containing anti GST-Tb cryptate (CisBio; 610SAXLB) and Streptavidin-XL665 (CisBio; 610SAXLB) as fluorescent donor and acceptor, respectively, as well as the coactivator peptide and LXRβ-LBD protein (SEQ ID NO:4). The reaction was mixed thoroughly, equilibrated for 1 h at 4° C. and vicinity of LXRβ and coactivator peptide was detected by measurement of fluorescence in a VictorX4 multiplate reader (PerkinElmer Life Science) using 340 nm as excitation and 615 and 665 nm as emission wavelengths. Assays were performed in triplicates.
# Final Assay Concentrations of Components:
# 240 mM KCl, 1 μg/μL BSA, 0.002% Triton-X-100, […] anti GST-Tb cryptate, 2.5 ng/μL Streptavidin-XL665, coactivator peptide (400 nM), LXRβ protein (530 μg/mL, i.e. 76 nM).
row,SMILES,pEC50
1,Cc1ccc(S(=O)(=O)n2c(-c3cccc(N4CC(C(=O)O)C4)c3)c(-c3ccsc3C(F)(F)F)c3cc(F)ccc32)cc1 [3/30],6.00 to 7.00
2,Cc1ccc(S(=O)(=O)n2c(-c3cccc(N4CC(C(=O)O)C4)c3)c(-c3ccccc3C3COC3)c3cc(F)ccc32)cc1 [3/31],6.00 to 7.00
3,COc1ccc(S(=O)(=O)n2c(-c3cccc(N4CC(C(=O)O)C4)c3)c(-c3ccsc3C#N)c3cc(F)ccc32)cc1 [3/33],5.00 to 6.00
4,N#Cc1sccc1-c1c(-c2cccc(N3CC(C(=O)O)C3)c2)n(S(=O)(=O)c2ccc(C(F)(F)F)cc2)c2ccc(F)cc12 [3/34],6.00 to 7.00
5,N#Cc1sccc1-c1c(-c2cccc(N3CC(C(=O)O)C3)c2)n(S(=O)(=O)c2ccc(C(F)F)cc2)c2ccc(F)cc12 [3/35],6.00 to 7.00
6,CC1CCN(S(=O)(=O)n2c(-c3cccc(N4CC(C(=O)O)C4)c3)c(-c3ccsc3C#N)c3cc(F)ccc32)CC1 [3/36],5.00 to 6.00
7,Cc1ccc(S(=O)(=O)n2c(-c3cccc(N4CC(C)(C(=O)O)C4)c3)c(-c3ccsc3C#N)c3cc(F)ccc32)cc1 [3/37],6.00 to 7.00
8,Cc1ccc(S(=O)(=O)n2c(-c3cccc(N4CCC(C(=O)O)CC4)c3)c(-c3ccsc3C#N)c3cc(F)ccc32)cc1 [3/38],6.00 to 7.00
9,Cc1ccc(S(=O)(=O)n2c(-c3cccc(C4CC(C(=O)O)C4)c3)c(-c3ccsc3C#N)c3cc(F)ccc32)cc1 (stereo not drawn) [3/39],6.00 to 7.00
10,Cc1ccc(S(=O)(=O)n2c(-c3cc(N4CC(C(=O)O)C4)ccc3Cl)c(-c3ccsc3C#N)c3cc(F)ccc32)cc1 [3/40],5.00 to 6.00
11,Cc1ccc(S(=O)(=O)n2c(-c3cc(N4CC(C(=O)O)C4)ccc3F)c(-c3ccsc3C#N)c3cc(F)ccc32)cc1 [3/41],5.00 to 6.00

# Target: T2, full length (FL) LXRα (Homo sapiens, UniProt Q13133)
# T2 construct: the full length (FL) proteins of LXRα (amino acids 1-447); NP005684; expressed in transfected cells; host or cells: HEK293
# T2 sequence (Q13133 1-447): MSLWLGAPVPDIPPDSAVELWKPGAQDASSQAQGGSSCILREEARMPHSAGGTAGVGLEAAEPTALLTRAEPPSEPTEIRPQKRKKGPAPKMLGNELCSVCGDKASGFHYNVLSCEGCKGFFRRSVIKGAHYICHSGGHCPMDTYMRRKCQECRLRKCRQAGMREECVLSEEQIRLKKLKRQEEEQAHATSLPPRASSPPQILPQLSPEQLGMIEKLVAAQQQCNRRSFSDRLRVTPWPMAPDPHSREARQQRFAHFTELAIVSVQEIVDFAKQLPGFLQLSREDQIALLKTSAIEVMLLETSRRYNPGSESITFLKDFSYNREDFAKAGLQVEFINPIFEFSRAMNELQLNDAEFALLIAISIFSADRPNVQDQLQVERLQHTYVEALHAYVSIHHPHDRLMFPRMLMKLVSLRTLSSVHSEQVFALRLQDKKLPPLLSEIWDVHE
# Test: LXR Gal4 reporter transient transfection assay (FL-M2H Gal4α)
# Type: cell-based
# Conditions: HEK293 cells, full length LXRα; read-out: FL-M2H Gal4α (EC50 range)
# Protocol: as §1
# (§2) LXR Gal4 Reporter Transient Transfection Assays
# (§3) LXRα and LXRβ activity status was determined via detection of interaction with coactivator and corepressor proteins in mammalian two-hybrid experiments (M2H). For this, via transient transfection the full length (FL) proteins of LXRα (amino acids 1-447; NP005684; SEQ ID NO:1) or LXRβ-(amino acids 1-461; NP009052; SEQ ID NO:2) or the ligand-binding domains (LBD) of LXRα (amino acids 155-447 SEQ ID NO:3) or LXRβ (amino acids 156-461; SEQ ID NO:4) were expressed from pCMV-AD (Stratagene) as fusions to the transcriptional activation domain of NFkB. As cofactors, domains of either the steroid receptor coactivator 1 (SRC1; amino acids 552-887; SEQ ID NO:5) or of the corepressor NCoR (amino acids 1906-2312; NP006302; SEQ ID NO:6) were expressed as fusions to the DNA binding domain of the yeast transcription factor GAL4 (from pCMV-BD; Stratagene). Interaction was monitored via activation of a coexpressed Firefly Luciferase Reporter gene under control of a promoter containing repetitive GAL4 response elements (vector pFRLuc; Stratagene). Transfection efficiency was controlled via cotransfection of constitutively active pRL-CMV Renila reniformis luciferase reporter (Promega). HEK293 cells were grown in minimum essential medium (MEM) with 2 mM L-glutamine and Earle's balanced salt solution supplemented with 8.3% fetal bovine serum, 0.1 mM non-essential amino acids, 1 mM sodium pyruvate, at 37° C. in 5% CO2. 3.5×10^4 cells/well were plated in 96-well cell culture plates in growth medium supplemented with 8.3% fetal bovine serum for 16-20 h to ˜90% confluency. For transfection, medium was taken off and LXR and cofactor expressing plasmids as well as the reporter plasmids are added in 30 μL OPTIMEM/well including polyethylene-imine (PEI) as vehicle. Typical amounts of plasmids transfected/well: pCMV-AD-LXR (5 ng), pCMV-BD-cofactor (5 ng), pFR-Luc (100 ng), pRL-CMV (0.5 ng). Compound stocks were prepared in DMSO, prediluted in MEM to a total volume of 120 μL, and added 4 h after addition of the transfection mixture (final vehicle concentration not exceeding 0.2%). Cells were incubated for additional 16 h, lysed for 10 min in 1× Passive Lysis Buffer (Promega) and Firefly and Renilla luciferase activities were measured sequentially in the same cell extract using buffers containing D-luciferine and coelenterazine, respectively. Measurements of luminescence were done in a BMG-luminometer.
row,SMILES,pEC50
1,Cc1ccc(S(=O)(=O)n2c(-c3cccc(N4CC(C(=O)O)C4)c3)c(-c3ccsc3C(F)(F)F)c3cc(F)ccc32)cc1 [3/30],> 7.00
2,Cc1ccc(S(=O)(=O)n2c(-c3cccc(N4CC(C(=O)O)C4)c3)c(-c3ccccc3C3COC3)c3cc(F)ccc32)cc1 [3/31],6.00 to 7.00
3,COc1ccc(S(=O)(=O)n2c(-c3cccc(N4CC(C(=O)O)C4)c3)c(-c3ccsc3C#N)c3cc(F)ccc32)cc1 [3/33],6.00 to 7.00
4,N#Cc1sccc1-c1c(-c2cccc(N3CC(C(=O)O)C3)c2)n(S(=O)(=O)c2ccc(C(F)(F)F)cc2)c2ccc(F)cc12 [3/34],6.00 to 7.00
5,N#Cc1sccc1-c1c(-c2cccc(N3CC(C(=O)O)C3)c2)n(S(=O)(=O)c2ccc(C(F)F)cc2)c2ccc(F)cc12 [3/35],6.00 to 7.00
6,CC1CCN(S(=O)(=O)n2c(-c3cccc(N4CC(C(=O)O)C4)c3)c(-c3ccsc3C#N)c3cc(F)ccc32)CC1 [3/36],6.00 to 7.00
7,Cc1ccc(S(=O)(=O)n2c(-c3cccc(N4CC(C)(C(=O)O)C4)c3)c(-c3ccsc3C#N)c3cc(F)ccc32)cc1 [3/37],> 7.00
8,Cc1ccc(S(=O)(=O)n2c(-c3cccc(N4CCC(C(=O)O)CC4)c3)c(-c3ccsc3C#N)c3cc(F)ccc32)cc1 [3/38],> 7.00
9,Cc1ccc(S(=O)(=O)n2c(-c3cccc(C4CC(C(=O)O)C4)c3)c(-c3ccsc3C#N)c3cc(F)ccc32)cc1 (stereo not drawn) [3/39],6.00 to 7.00
10,Cc1ccc(S(=O)(=O)n2c(-c3cc(N4CC(C(=O)O)C4)ccc3Cl)c(-c3ccsc3C#N)c3cc(F)ccc32)cc1 [3/40],6.00 to 7.00
11,Cc1ccc(S(=O)(=O)n2c(-c3cc(N4CC(C(=O)O)C4)ccc3F)c(-c3ccsc3C#N)c3cc(F)ccc32)cc1 [3/41],> 7.00

# Target: T3, full length (FL) LXRβ (Homo sapiens, UniProt P55055, DUP175-175)
# T3 construct: the full length (FL) proteins of LXRα (amino acids 1-447); NP005684; NP009052; expressed in transfected cells; host or cells: HEK293
# T3 sequence (P55055 with tags, fused parts or gaps DUP175-175): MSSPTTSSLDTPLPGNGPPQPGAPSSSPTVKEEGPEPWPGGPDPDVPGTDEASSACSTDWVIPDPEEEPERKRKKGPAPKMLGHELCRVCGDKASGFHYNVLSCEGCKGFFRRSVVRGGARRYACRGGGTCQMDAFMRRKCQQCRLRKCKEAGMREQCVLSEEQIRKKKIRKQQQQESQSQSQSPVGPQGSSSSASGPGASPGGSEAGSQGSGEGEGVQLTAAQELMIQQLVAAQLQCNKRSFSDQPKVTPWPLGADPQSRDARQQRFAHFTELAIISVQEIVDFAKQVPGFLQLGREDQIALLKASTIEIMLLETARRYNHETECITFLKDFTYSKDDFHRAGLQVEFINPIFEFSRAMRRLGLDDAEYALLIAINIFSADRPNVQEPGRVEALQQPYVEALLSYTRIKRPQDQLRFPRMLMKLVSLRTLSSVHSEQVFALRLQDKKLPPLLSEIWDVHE
# Test: LXR Gal4 reporter transient transfection assay (FL-M2H Gal4β)
# Type: cell-based
# Conditions: HEK293 cells, full length LXRβ; read-out: FL-M2H Gal4β (EC50 range)
# Protocol: as §1, §2, §3
row,SMILES,pEC50
1,Cc1ccc(S(=O)(=O)n2c(-c3cccc(N4CC(C(=O)O)C4)c3)c(-c3ccsc3C(F)(F)F)c3cc(F)ccc32)cc1 [3/30],> 7.00
2,Cc1ccc(S(=O)(=O)n2c(-c3cccc(N4CC(C(=O)O)C4)c3)c(-c3ccccc3C3COC3)c3cc(F)ccc32)cc1 [3/31],6.00 to 7.00
3,COc1ccc(S(=O)(=O)n2c(-c3cccc(N4CC(C(=O)O)C4)c3)c(-c3ccsc3C#N)c3cc(F)ccc32)cc1 [3/33],> 7.00
4,N#Cc1sccc1-c1c(-c2cccc(N3CC(C(=O)O)C3)c2)n(S(=O)(=O)c2ccc(C(F)(F)F)cc2)c2ccc(F)cc12 [3/34],> 7.00
5,N#Cc1sccc1-c1c(-c2cccc(N3CC(C(=O)O)C3)c2)n(S(=O)(=O)c2ccc(C(F)F)cc2)c2ccc(F)cc12 [3/35],> 7.00
6,CC1CCN(S(=O)(=O)n2c(-c3cccc(N4CC(C(=O)O)C4)c3)c(-c3ccsc3C#N)c3cc(F)ccc32)CC1 [3/36],6.00 to 7.00
7,Cc1ccc(S(=O)(=O)n2c(-c3cccc(N4CC(C)(C(=O)O)C4)c3)c(-c3ccsc3C#N)c3cc(F)ccc32)cc1 [3/37],> 7.00
8,Cc1ccc(S(=O)(=O)n2c(-c3cccc(N4CCC(C(=O)O)CC4)c3)c(-c3ccsc3C#N)c3cc(F)ccc32)cc1 [3/38],> 7.00
9,Cc1ccc(S(=O)(=O)n2c(-c3cccc(C4CC(C(=O)O)C4)c3)c(-c3ccsc3C#N)c3cc(F)ccc32)cc1 (stereo not drawn) [3/39],> 7.00
10,Cc1ccc(S(=O)(=O)n2c(-c3cc(N4CC(C(=O)O)C4)ccc3Cl)c(-c3ccsc3C#N)c3cc(F)ccc32)cc1 [3/40],> 7.00
11,Cc1ccc(S(=O)(=O)n2c(-c3cc(N4CC(C(=O)O)C4)ccc3F)c(-c3ccsc3C#N)c3cc(F)ccc32)cc1 [3/41],> 7.00
